Results: ChEMBL document CHEMBL1201862, “PubChem BioAssay data set” (2004)
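Following 48 hours of exposure in 96-well plates, responses at five concentrations were used to interpolate endpoints linearly. GI50 = concentration required for 50% inhibition of growth.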 Calls of active or inactive are those of the source. Cut-off read from the data, not from the text of the source: active = GI50 up to about 1.1 µM and inactive = higher.

Key:
Test in all cases: inhibition of tumour cell growth, NCI panel, 48 h
786-0 = system: 786-0
A498 = system: A498
A549 = system: A549
ACHN = system: ACHN
BT-549 = system: BT-549
CAKI-1 = system: CAKI-1
CCRF-CEM = system: CCRF-CEM
COLO 205 = system: COLO 205
DU-145 = system: DU-145
EKVX = system: EKVX
HCC 2998 = system: HCC 2998
HCT-116 = system: HCT-116
HCT-15 = system: HCT-15
HL-60 = system: HL-60
HOP-62 = system: HOP-62
HOP-92 = system: HOP-92
HT-29 = system: HT-29
Hs-578T = system: Hs-578T
IGROV-1 = system: IGROV-1
K562 = system: K562
KM12 = system: KM12
LOX IMVI = system: LOX IMVI
M14 = system: M14
MCF7 = system: MCF7
MDA-MB-231 = system: MDA-MB-231
MDA-MB-435 = system: MDA-MB-435
MDA-N = system: MDA-N
MOLT-4 = system: MOLT-4
Malme-3M = system: Malme-3M
NCI-H23 = system: NCI-H23
NCI-H460 = system: NCI-H460
NCI-H522 = system: NCI-H522
NCI/ADR-RES = system: NCI/ADR-RES
OVCAR-3 = system: OVCAR-3
OVCAR-4 = system: OVCAR-4
OVCAR-5 = system: OVCAR-5
OVCAR-8 = system: OVCAR-8
PC-3 = system: PC-3
RPMI-8226 = system: RPMI-8226
SF-268 = system: SF-268
SF-295 = system: SF-295
SF-539 = system: SF-539
SK-MEL-28 = system: SK-MEL-28
SK-MEL-2 = system: SK-MEL-2
SK-MEL-5 = system: SK-MEL-5
SN12C = system: SN12C
SNB-19 = system: SNB-19
SNB-75 = system: SNB-75
SR = system: SR
SW-620 = system: SW-620
T47D = system: T47D
TK-10 = system: TK-10
U-251 = system: U-251
UACC-257 = system: UACC-257
UACC-62 = system: UACC-62
UO-31 = system: UO-31
NCI-H226 = system: NCI-H226
SK-OV-3 = system: SK-OV-3

In the case of Cc1nc2ccccc2n1COC(Cn1ccnc1)c1ccc(Cl)cc1Cl (configuration not stated), the GI50 (786-0) is reported as 75.7 µM (inactive), the GI50 (A498) is reported as > 100 µM (inactive) and the GI50 (A549) is reported as 72.4 µM (inactive). The GI50 (ACHN) was 34.8 µM (inactive), the GI50 (BT-549) was 33 µM (inactive) and the GI50 (CAKI-1) was 17.4 µM (inactive). For the same molecule, the GI50 (CCRF-CEM) was 88.9 µM (inactive), the GI50 (COLO 205) was 39.3 µM (inactive) and the GI50 (DU-145) was > 100 µM (inactive). The GI50 (EKVX) was 7.1 µM (inactive), the GI50 (HCC 2998) was 76 µM (inactive) and the GI50 (HCT-116) was 53.7 µM (inactive). The GI50 (HCT-15) was 34.8 µM, the GI50 (HL-60) was 30.5 µM (inactive) and the GI50 (HOP-62) was 57.3 µM (inactive). For the same molecule, the GI50 (HOP-92) was 23.3 µM (inactive), the GI50 (HT-29) was 62.2 µM (inactive) and the GI50 (Hs-578T) was 81.7 µM (inactive). The GI50 (IGROV-1) was > 100 µM (inactive), the GI50 (K562) was 42.8 µM (inactive) and the GI50 (KM12) was 71.4 µM (inactive). The GI50 (LOX IMVI) was 50.8 µM (inactive), the GI50 (M14) was > 100 µM (inactive) and the GI50 (MCF7) was 41.7 µM (inactive). For the same molecule, the GI50 (MDA-MB-231) was > 100 µM (inactive), the GI50 (MDA-MB-435) was 50.1 µM (inactive) and the GI50 (MDA-N) was 48.8 µM (inactive). For the same molecule, the GI50 (MOLT-4) was 30.1 µM (inactive), the GI50 (Malme-3M) was > 100 µM (inactive) and the GI50 (NCI-H23) was 55.8 µM (inactive). For the same molecule, the GI50 (NCI-H460) was 15.3 µM (inactive), the GI50 (NCI-H522) was > 100 µM (inactive) and the GI50 (NCI/ADR-RES) was 99.8 µM (inactive). The GI50 (OVCAR-3) was 41.4 µM (inactive), the GI50 (OVCAR-4) was 30.4 µM (inactive) and the GI50 (OVCAR-5) was > 100 µM (inactive). The GI50 (OVCAR-8) was 94 µM (inactive), the GI50 (PC-3) was 23.4 µM (inactive) and the GI50 (RPMI-8226) was 35.2 µM (inactive). The GI50 (SF-268) was 78.3 µM (inactive), the GI50 (SF-295) was 71 µM (inactive) and the GI50 (SF-539) was > 100 µM (inactive). The GI50 (SK-MEL-28) was > 100 µM (inactive), the GI50 (SK-MEL-2) was 64 µM (inactive) and the GI50 (SK-MEL-5) was 22.4 µM (inactive). The GI50 (SN12C) was > 100 µM (inactive), the GI50 (SNB-19) was > 100 µM (inactive) and the GI50 (SNB-75) was 53.6 µM (inactive). For the same molecule, the GI50 (SR) was 60.3 µM (inactive), the GI50 (SW-620) was > 100 µM (inactive) and the GI50 (T47D) was 41.7 µM (inactive). For the same molecule, the GI50 (TK-10) was 83.9 µM (inactive), the GI50 (U-251) was 86.9 µM (inactive) and the GI50 (UACC-257) was 31 µM (inactive). For the same molecule, the GI50 (UACC-62) was 56.5 µM (inactive) and the GI50 (UO-31) was 25.6 µM (inactive).
For Nc1nc(Cl)cc(Nc2ccc3c(c2)CCC3)n1, the GI50 (786-0) was 52.2 µM (inactive), the GI50 (A498) was > 100 µM (inactive) and the GI50 (A549) was > 100 µM (inactive). For the same molecule, the GI50 (ACHN) was > 100 µM (inactive), the GI50 (BT-549) was > 100 µM (inactive) and the GI50 (CAKI-1) was 30.1 µM (inactive). For the same molecule, the GI50 (CCRF-CEM) was 44.3 µM (inactive), the GI50 (COLO 205) was 44.9 µM (inactive) and the GI50 (DU-145) was > 100 µM (inactive). For the same molecule, the GI50 (EKVX) was 32.1 µM (inactive), the GI50 (HCC 2998) was 65 µM (inactive) and the GI50 (HCT-116) was 43.8 µM (inactive). The GI50 (HCT-15) was 35.9 µM, the GI50 (HL-60) was 37.2 µM (inactive) and the GI50 (HOP-92) was > 100 µM (inactive). The GI50 (HT-29) was 26.1 µM (inactive), the GI50 (Hs-578T) was > 100 µM (inactive) and the GI50 (IGROV-1) was 41.5 µM (inactive). For the same molecule, the GI50 (K562) was 32.7 µM (inactive), the GI50 (KM12) was 36.1 µM (inactive) and the GI50 (LOX IMVI) was 56.5 µM (inactive). The GI50 (M14) was > 100 µM (inactive), the GI50 (MCF7) was > 100 µM (inactive) and the GI50 (MDA-MB-231) was 52 µM (inactive). For the same molecule, the GI50 (MDA-MB-435) was > 100 µM (inactive), the GI50 (MDA-N) was > 100 µM (inactive) and the GI50 (MOLT-4) was 2.45 µM (inactive). For the same molecule, the GI50 (Malme-3M) was > 100 µM (inactive), the GI50 (NCI-H226) was > 100 µM (inactive) and the GI50 (NCI-H23) was > 100 µM (inactive). For the same molecule, the GI50 (NCI-H460) was 55.8 µM (inactive), the GI50 (NCI-H522) was 45.4 µM (inactive) and the GI50 (NCI/ADR-RES) was 28.6 µM (inactive). The GI50 (OVCAR-3) was > 100 µM (inactive), the GI50 (OVCAR-4) was > 100 µM (inactive) and the GI50 (OVCAR-5) was > 100 µM (inactive). The GI50 (OVCAR-8) was 80.9 µM (inactive), the GI50 (PC-3) was 61.2 µM (inactive) and the GI50 (RPMI-8226) was 19.7 µM (inactive). The GI50 (SF-268) was > 100 µM (inactive), the GI50 (SF-295) was > 100 µM (inactive) and the GI50 (SF-539) was > 100 µM (inactive). The GI50 (SK-MEL-28) was > 100 µM (inactive), the GI50 (SK-MEL-2) was > 100 µM (inactive) and the GI50 (SK-MEL-5) was 91.4 µM (inactive). The GI50 (SK-OV-3) was > 100 µM (inactive), the GI50 (SN12C) was 80.2 µM (inactive) and the GI50 (SNB-19) was > 100 µM (inactive). For the same molecule, the GI50 (SR) was 17.4 µM (inactive), the GI50 (SW-620) was 85.1 µM (inactive) and the GI50 (T47D) was > 100 µM (inactive). The GI50 (TK-10) was 65 µM (inactive), the GI50 (U-251) was > 100 µM (inactive) and the GI50 (UACC-257) was > 100 µM (inactive). For the same molecule, the GI50 (UACC-62) was > 100 µM (inactive) and the GI50 (UO-31) was > 100 µM (inactive).
